In BindingDB's records for PubMed 2841449 (Merck Sharp & Dohme Research Laboratories, 1988) one finds Ki data, which are given here for one molecule.

One assay concerns the target Beta-arrestin-1 (Oryctolagus cuniculus, UniProt Q95223).
Assay [1] concerns the target Platelet-activating factor receptor (Homo sapiens, UniProt P25105).

Beta-arrestin-1, sequence (Q95223 whole entry): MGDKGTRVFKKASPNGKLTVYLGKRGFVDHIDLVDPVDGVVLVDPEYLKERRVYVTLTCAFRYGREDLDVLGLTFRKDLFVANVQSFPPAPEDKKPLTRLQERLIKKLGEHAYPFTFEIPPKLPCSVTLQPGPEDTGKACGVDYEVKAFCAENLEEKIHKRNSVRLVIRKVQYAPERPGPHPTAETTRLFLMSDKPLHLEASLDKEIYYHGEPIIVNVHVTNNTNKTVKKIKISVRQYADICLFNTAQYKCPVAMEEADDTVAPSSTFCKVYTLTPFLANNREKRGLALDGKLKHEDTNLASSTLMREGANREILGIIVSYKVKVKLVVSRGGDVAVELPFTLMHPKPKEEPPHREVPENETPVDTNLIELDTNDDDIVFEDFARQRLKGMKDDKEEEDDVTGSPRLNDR
Platelet-activating factor receptor, sequence (P25105 whole entry): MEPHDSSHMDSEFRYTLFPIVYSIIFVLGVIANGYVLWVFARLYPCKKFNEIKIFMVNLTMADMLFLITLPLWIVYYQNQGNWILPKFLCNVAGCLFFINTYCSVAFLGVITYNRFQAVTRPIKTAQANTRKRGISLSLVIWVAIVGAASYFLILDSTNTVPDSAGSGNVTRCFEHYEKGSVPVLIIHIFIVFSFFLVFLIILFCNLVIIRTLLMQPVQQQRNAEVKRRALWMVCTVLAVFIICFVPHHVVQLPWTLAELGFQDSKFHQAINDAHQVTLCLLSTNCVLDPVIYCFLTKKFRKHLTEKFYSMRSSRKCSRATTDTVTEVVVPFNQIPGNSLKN

Consider `CCCOc1c(OC)cc([C@H]2CC[C@H](c3cc(OC)c(OC)c(OC)c3)O2)cc1S(C)(=O)=O` [L-659,989, (-)], for which the values for the inhibition constant (Ki) (on Beta-arrestin-1; in assay [1]) were 0.51 nM and 5.48 nM, respectively.

Usually Ki stands for a measure of affinity in units of concentration, obtained from inhibition or displacement. A lower Ki goes with higher affinity.
